Source: US20120122870A1, “Treatment Of Ischemia-Reperfusion Injury” (MUSC FOUNDATION FOR RESEARCH DEVELOPMENT, priority 2009, published 2012)
Entries after “also recorded” stand apart in the source; their conditions may differ.

System: non-heart-beating liver transplantation in Lewis rats
Experiment: Non-heart-beating donor liver transplantation, graft necrosis (H+E)
Type: in vivo
Details: 30-min aorta clamping, 4-hour cold storage; grafts harvested 18 h after implantation
From the text: ABC294640 improves the outcome of non-heart-beating liver transplantation. The severe donor organ shortage could be reduced by the use of marginal livers for transplantation. Currently only livers from brain-dead, heart-beating donors (HBD) are used for transplantation since liver grafts from non-heart-beating donors frequently fail after transplantation. Development of a method to improve survival of grafts from NHBD is critical to expand the usable liver donor pool. Grafts from NHBD experience longer warm ischemia before liver retrieval, which likely upregulates SK to a higher extent compared to those from HBD. Therefore, we performed a pilot study to test if ABC294640 improves the outcome of non-heart-beating liver transplantation. Livers were explanted from Lewis rats after 30-min of aorta clamping to mimic non-heart-beating donation and implanted after 4-hour storage in UW solution at 0-1° C. […] In cold-stored, untransplanted livers from NHBD, although some cell swelling was observed, no necrosis occurred (FIG. 19, upper right). After transplantation of livers from HBD, small focal necrosis occurred (FIG. 19, middle left). […] Necrotic areas in sections were quantified by image analysis using an Image-1/AT image acquisition and analysis system (Universal Imaging Corp., West Chester, Pa.) incorporating an Axioskop 50 microscope (Carl Zeiss, Inc., Thornwood, NY) and a 10× objective lens.

Structure (SMILES): O=C(NCc1ccncc1)C12CC3CC(C1)CC(c1ccc(Cl)cc1)(C3)C2 [ABC294640, 3-(4-chlorophenyl)-N-(pyridin-4-ylmethyl)adamantane-1-carboxamide]
- necrotic areas in transplanted livers from non-heart-beating donors: substantially decreased; also recorded: attenuates necrosis
